Measured values as given in patent publication US20190079079A1, “3-D TISSUE CULTURE BASED METHOD TO ASSESS MITOCHONDRIAL IMPAIRMENT” (INSPHERO AG, priority 2016, published 2019).
Structures can show the parent of a compound that is named as a salt. Where two headings read alike, the source gives them in different places.

Columns and labels:
[1] = test system: 3D primary human hepatocytes microtissues (IPHH_02)
Experimental: (§1) B. Coating of Seahorse Spheroid plates • 20 uL of Poly-D-Lysine (100 ug/mL diluted in cell culture grade water) were added to each well of the Seahorse Spheroid plate (Incubation for 20min @ RT) • After coating, the Seahorse Spheroid plate was washed with 200 uL of sterile water and wash was removed (Washing step repeated once) • Seahorse Spheroid plate has been air dried for a few minutes
(§2) D. Seahorse XF Analyzer Run • While cell incubation fill up the ports of the cartridge according to the Seahorse manufacturer's protocol • Setup groups and parameters for the measurement (basal: 7 cycles, oligomycin 2 uM: 6 cycles, FCCP 0.5 uM: 3 cycles, FCCP 1 uM: 3 cycles, Rot/AA 0.5 uM: 9 cycles) • Start the measurement
(§3) DILI classification: Drug-induced liver injury according to Gustafsson et al, 2014 (N=negative, P=positive). CMax=concentration of candidate compound used in Gustafsson et al, 2014; CTop=concentration of candidate compound used herein; IC50CV/Cyt determined by the CellTiter-Glo Luminescent Cell Viability Assay (Promega, Madison, US) as disclosed herein, IC50MTSRR determined as inhibition on spare respiratory capacity (SPARE), as disclosed herein; MOS: Margin of safety; High Mito-toxic risk: IC5O_MTSRR<0.75×IC5O_CV/CYT; Low Mito-toxic risk: IC5O_MTSRR<IC5O_CV/CYT and IC5O_MTSRR≥0.75×IC5O_CV/CYT; No Mito-toxic risk: IC5O_MTSRR≥IC5O_CV/CYT

[2] = categorized by Gustafsson et al; cited from earlier work
[3] = test system: 3D primary human hepatocytes microtissues (IPHH_02); experiment: Seahorse XF Analyzer measurement of spare respiratory capacity (microtissue-specific respiration rate, MTSRR) after 48 h compound exposure; details: High: IC50_MTSRR<0.75×IC50_CV/CYT; Low: IC50_MTSRR<IC50_CV/CYT and ≥0.75×IC50_CV/CYT; No: IC50_MTSRR≥IC50_CV/CYT (CV/CYT by CellTiter-Glo)
Experimental: as §1, §2, §3

O=c1[nH]c(=O)n([C@@H]2O[C@H](CO)[C@@H](O)[C@@H]2F)cc1I [Fialuridine]
Mitochondrial toxicity risk [1]: not have specific mitochondrial toxicity | DILI classification [2]: liver toxic

CN(C)C(=N)N=C(N)N [Metformin HCl]
Mitochondrial toxicity risk [3]: low mitochondrial toxicity | DILI classification [2]: not liver toxic
